Test results reported in ChEMBL document CHEMBL1955738, “Synthesis and antitumor activity of 5,6-dihydro-17-hydroxy icogenin analogs” (Eur J Med Chem, 2012).
pIC50: −log10 of the molar value.

What was measured:
Type in all cases: functional, cell-based
HCT-8 = assay: Cytotoxicity against human HCT8 cells by MTT assay
Bel-7402 = assay: Cytotoxicity against human Bel7402 cells by MTT assay
KB = assay: Cytotoxicity against human KB cells by MTT assay
A2780 = assay: Cytotoxicity against human A2780 cells by MTT assay
BGC-823 = assay: Cytotoxicity against human BGC823 cells by MTT assay
A549 = assay: Cytotoxicity against human A549 cells by MTT assay
HeLa = assay: Cytotoxicity against human HeLa cells by MTT assay
HL-60 = assay: Cytotoxicity against human HL60 cells

Row | SMILES | pIC50 (HCT-8) | pIC50 (Bel-7402) | pIC50 (KB) | pIC50 (A2780) | pIC50 (BGC-823) | pIC50 (A549) | pIC50 (HeLa) | pIC50 (HL-60) | IC50 (HL-60) [µg/mL]
1 | CO[C@]1(CC[C@@H](C)CO)O[C@H]2C[C@H]3[C@@H]4CCC5C[C@@H](O)CC[C@]5(C)[C@H]4CC[C@]3(C)[C@@]2(O)[C@@H]1C (some centres not stated) | < 5.00 | < 5.00 | < 5.00 | < 5.00 | < 5.00 | < 5.00 | < 5.00 |  | 
2 | CO[C@]1(CC[C@@H](C)CO)O[C@H]2C[C@H]3[C@@H]4CCC5C[C@@H](O[C@@H]6O[C@H](CO)[C@@H](O)[C@H](O)[C@H]6O)CC[C@]5(C)[C@H]4CC[C@]3(C)[C@@]2(O)[C@@H]1C (some centres not stated) | < 5.00 | < 5.00 | < 5.00 | < 5.00 | < 5.00 | < 5.00 | < 5.00 |  | 
3 | CO[C@]1(CC[C@@H](C)CO)O[C@H]2C[C@H]3[C@@H]4CCC5C[C@@H](O[C@H]6O[C@H](CO)[C@@H](O)[C@H](O)[C@H]6O[C@@H]6O[C@@H](C)[C@H](O)[C@@H](O)[C@H]6O)CC[C@]5(C)[C@H]4CC[C@]3(C)[C@@]2(O)[C@@H]1C (some centres not stated) | 5.47 | 5.08 | 5.22 | 5.10 | 5.37 | 5.43 | 5.11 |  | 
4 | CO[C@]1(CC[C@@H](C)CO)O[C@H]2C[C@H]3[C@@H]4CCC5C[C@@H](O[C@H]6O[C@H](CO)[C@@H](O[C@@H]7O[C@H](CO)[C@@H](O)[C@H](O)[C@H]7O)[C@H](O)[C@H]6O[C@@H]6O[C@@H](C)[C@H](O)[C@@H](O)[C@H]6O)CC[C@]5(C)[C@H]4CC[C@]3(C)[C@@]2(O)[C@@H]1C (some centres not stated) | 5.22 | 5.01 | 5.28 | 5.09 | 5.10 | 5.72 | 5.08 |  | 
5 | C[C@@H]1CC[C@@]2(OC1)O[C@H]1C[C@H]3[C@@H]4CC=C5C[C@@H](O[C@@H]6O[C@H](CO)[C@@H](O[C@@H]7O[C@@H](C)[C@H](O)[C@@H](O)[C@H]7O)[C@H](O)[C@H]6O[C@@H]6O[C@@H](C)[C@H](O)[C@@H](O)[C@H]6O)CC[C@]5(C)[C@H]4CC[C@]3(C)[C@H]1[C@@H]2C [DIOSCIN] | 6.47 | 6.09 | 6.28 | 6.06 | 5.97 | 6.09 | 6.30 |  | 
6 | CO[C@]1(CC[C@H](C)CO)O[C@H]2C[C@H]3[C@@H]4CC=C5C[C@@H](O[C@@H]6O[C@H](CO)[C@@H](O)[C@H](O[C@@H]7O[C@H](CO)[C@@H](O)[C@H](O)[C@H]7O)[C@H]6O[C@@H]6O[C@@H](C)[C@H](O)[C@@H](O)[C@H]6O)CC[C@]5(C)[C@H]4CC[C@]3(C)[C@H]2[C@@H]1C [ICOGENIN] |  |  |  |  |  |  |  | 5.59 | 
7 | C[C@@H](CC[C@@]1(O)O[C@H]2C[C@H]3[C@@H]4CC[C@@H]5C[C@@H](O[C@@H]6O[C@H](CO)[C@H](O)[C@H](O)[C@H]6O[C@@H]6O[C@H](CO)[C@@H](O)[C@H](O)[C@H]6O)CC[C@]5(C)[C@H]4CC[C@]3(C)[C@H]2[C@@H]1C)CO[C@@H]1O[C@H](CO)[C@@H](O)[C@H](O)[C@H]1O [TIMOSAPONIN BII] |  |  |  |  |  |  |  |  | 15.5
